Laboratory results taken from the supplement of paper PMC10733146.

Key:
Assay in all cases: viability relative to DMSO control (fraction); higher = less drug effect (more viable cells)
Settings in all cases: 48 h
CPI-169 = compound: CCS(=O)(=O)N1CCC([C@@H](C)n2c(C)c(C(=O)NCc3c(OC)cc(C)[nH]c3=O)c3ccccc32)CC1 [CPI-169]
Summary of the method: (§1)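 Using 384-well plates with compounds already plated at five concentrations, one well per concentration, 4 × 10^4 primary mononuclear tumour cells were added per well. Cells were Ficoll-isolated from blood or bone marrow or came from processed lymph node, fresh or cryopreserved. They were kept for 48 h at 37 °C and 5% CO2 in RPMI-1640 supplemented with penicillin/streptomycin, L-glutamine and human serum, and viability was read as CellTiter-Glo luminescence relative to the median of 16 inner DMSO wells.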

Everolimus = compound: CO[C@H]1C[C@@H]2CC[C@@H](C)[C@@](O)(O2)C(=O)C(=O)N2CCCC[C@H]2C(=O)O[C@H]([C@H](C)C[C@@H]2CC[C@@H](OCCO)[C@H](OC)C2)CC(=O)[C@H](C)/C=C(\C)[C@@H](O)[C@@H](OC)C(=O)[C@H](C)C[C@H](C)/C=C/C=C/C=C/1C [Everolimus]
Summary of the method: as §1

Idasanutlin (RS7388) = compound: COc1cc(C(=O)O)ccc1NC(=O)[C@@H]1N[C@@H](CC(C)(C)C)[C@](C#N)(c2ccc(Cl)cc2F)[C@H]1c1cccc(Cl)c1F [Idasanutlin (RS7388)]
Summary of the method: as §1

Etoposide = compound: COc1cc([C@@H]2c3cc4c(cc3[C@@H](O[C@@H]3O[C@@H]5CO[C@@H](C)O[C@H]5[C@H](O)[C@H]3O)[C@H]3COC(=O)[C@H]23)OCO4)cc(OC)c1O [Etoposide]
Summary of the method: as §1

Tofacitinib = compound: C[C@@H]1CCN(C(=O)CC#N)C[C@@H]1N(C)c1ncnc2[nH]ccc12 [Tofacitinib]
Summary of the method: as §1

Duvelisib = compound: C[C@H](Nc1ncnc2nc[nH]c12)c1cc2cccc(Cl)c2c(=O)n1-c1ccccc1 [Duvelisib]
Summary of the method: as §1

Pomalidomide = compound: Nc1cccc2c1C(=O)N(C1CCC(=O)NC1=O)C2=O [Pomalidomide]
Summary of the method: as §1

Filgotinib = compound: O=C(Nc1nc2cccc(-c3ccc(CN4CCS(=O)(=O)CC4)cc3)n2n1)C1CC1 [Filgotinib]
Summary of the method: as §1

Thalidomide = compound: O=C1CCC(N2C(=O)c3ccccc3C2=O)C(=O)N1 [Thalidomide]
Summary of the method: as §1

Palbociclib = compound: CC(=O)c1c(C)c2cnc(Nc3ccc(N4CCNCC4)cn3)nc2n(C2CCCC2)c1=O [Palbociclib]
Summary of the method: as §1

Navitoclax = compound: CC1(C)CCC(c2ccc(Cl)cc2)=C(CN2CCN(c3ccc(C(=O)NS(=O)(=O)c4ccc(N[C@H](CCN5CCOCC5)CSc5ccccc5)c(S(=O)(=O)C(F)(F)F)c4)cc3)CC2)C1 [Navitoclax]
Summary of the method: as §1

I-BET-762 = compound: CCNC(=O)C[C@@H]1N=C(c2ccc(Cl)cc2)c2cc(OC)ccc2-n2c(C)nnc21 [I-BET-762]
Summary of the method: as §1

[1] = compound: CCc1ccc(/C=C2/SC(=S)NC2=O)cc1
Summary of the method: as §1

primary AML patient cells (S055) gave a viability (CPI-169; 0.024 µM) of 0.982, a viability (CPI-169; 0.12 µM) of 0.989 and a viability (CPI-169; 0.6 µM) of 1.07. The viability (CPI-169; 3 µM) was 1.03, the viability (CPI-169; 15 µM) was 1 and the viability (Everolimus; 0.0032 µM) was 0.904. It also gave a viability (Everolimus; 0.016 µM) of 0.96, a viability (Everolimus; 0.08 µM) of 0.89 and a viability (Everolimus; 0.4 µM) of 0.951. It also gave a viability (Everolimus; 2 µM) of 0.914, a viability (Idasanutlin (RS7388); 0.032 µM) of 0.872 and a viability (Idasanutlin (RS7388); 0.16 µM) of 0.934. The viability (Idasanutlin (RS7388); 0.8 µM) was 0.694, the viability (Idasanutlin (RS7388); 4 µM) was 0.389 and the viability (Idasanutlin (RS7388); 20 µM) was 0.229. It also gave a viability (Etoposide; 0.032 µM) of 1.03, a viability (Etoposide; 0.16 µM) of 1 and a viability (Etoposide; 0.8 µM) of 0.989. It also gave a viability (Etoposide; 4 µM) of 1.03, a viability (Etoposide; 20 µM) of 0.937 and a viability (Tofacitinib; 0.024 µM) of 0.979. It also gave a viability (Tofacitinib; 0.12 µM) of 0.964, a viability (Tofacitinib; 0.6 µM) of 0.913 and a viability (Tofacitinib; 3 µM) of 0.949. The viability (Tofacitinib; 15 µM) was 0.946, the viability (Duvelisib; 0.0016 µM) was 0.937 and the viability (Duvelisib; 0.008 µM) was 0.954. It also gave a viability (Duvelisib; 0.04 µM) of 0.893, a viability (Duvelisib; 0.2 µM) of 0.862 and a viability (Duvelisib; 1 µM) of 0.77. It also gave a viability (Pomalidomide; 0.0032 µM) of 0.955, a viability (Pomalidomide; 0.016 µM) of 0.951 and a viability (Pomalidomide; 0.08 µM) of 0.978. For the same test system, the viability (Pomalidomide; 0.4 µM) was 0.966, the viability (Pomalidomide; 2 µM) was 0.975 and the viability (Filgotinib; 0.024 µM) was 0.942. The viability (Filgotinib; 0.12 µM) was 0.936, the viability (Filgotinib; 0.6 µM) was 0.959 and the viability (Filgotinib; 3 µM) was 0.916. The viability (Filgotinib; 15 µM) was 0.594, the viability (Thalidomide; 0.032 µM) was 0.916 and the viability (Thalidomide; 0.16 µM) was 0.94. For the same test system, the viability (Thalidomide; 0.8 µM) was 0.894, the viability (Thalidomide; 4 µM) was 0.931 and the viability (Thalidomide; 20 µM) was 0.876.

For primary DLBCL patient cells (S049), the viability (Palbociclib; 0.024 µM) was 0.999, the viability (Palbociclib; 0.12 µM) was 0.968 and the viability (Palbociclib; 0.6 µM) was 0.88. The viability (Palbociclib; 3 µM) was 0.496, the viability (Palbociclib; 15 µM) was 0.0932 and the viability (Navitoclax; 0.0032 µM) was 1. For the same test system, the viability (Navitoclax; 0.016 µM) was 0.834, the viability (Navitoclax; 0.08 µM) was 0.375 and the viability (Navitoclax; 0.4 µM) was 0.0676. The viability (Navitoclax; 2 µM) was 0.0439, the viability (I-BET-762; 0.008 µM) was 0.982 and the viability (I-BET-762; 0.04 µM) was 1.02. It also gave a viability (I-BET-762; 0.2 µM) of 0.987, a viability (I-BET-762; 1 µM) of 0.552 and a viability (I-BET-762; 5 µM) of 0.246. For the same test system, the viability (CPI-169; 0.024 µM) was 1.03, the viability (CPI-169; 0.12 µM) was 1.02 and the viability (CPI-169; 0.6 µM) was 1.05. For the same test system, the viability (CPI-169; 3 µM) was 0.991, the viability (CPI-169; 15 µM) was 0.97 and the viability ([1]; 0.024 µM) was 0.744. It also gave a viability ([1]; 0.12 µM) of 0.798, a viability ([1]; 0.6 µM) of 0.902 and a viability ([1]; 3 µM) of 0.873. It also gave a viability ([1]; 15 µM) of 0.737, a viability (Everolimus; 0.0032 µM) of 1.1 and a viability (Everolimus; 0.016 µM) of 1.04. The viability (Everolimus; 0.08 µM) was 1.09, the viability (Everolimus; 0.4 µM) was 1.05 and the viability (Everolimus; 2 µM) was 1.02. The viability (Etoposide; 0.032 µM) was 0.907, the viability (Etoposide; 0.16 µM) was 1.01 and the viability (Etoposide; 0.8 µM) was 0.962. The viability (Etoposide; 4 µM) was 0.882, the viability (Etoposide; 20 µM) was 0.548 and the viability (Tofacitinib; 0.024 µM) was 0.811. It also gave a viability (Tofacitinib; 0.12 µM) of 0.775, a viability (Tofacitinib; 0.6 µM) of 0.926 and a viability (Tofacitinib; 3 µM) of 1.01. For the same test system, the viability (Tofacitinib; 15 µM) was 1.32, the viability (Duvelisib; 0.0016 µM) was 0.988 and the viability (Duvelisib; 0.008 µM) was 0.969. It also gave a viability (Duvelisib; 0.04 µM) of 0.92, a viability (Duvelisib; 0.2 µM) of 0.986 and a viability (Duvelisib; 1 µM) of 0.81. For the same test system, the viability (Pomalidomide; 0.0032 µM) was 0.959, the viability (Pomalidomide; 0.016 µM) was 1.11 and the viability (Pomalidomide; 0.08 µM) was 1. For the same test system, the viability (Pomalidomide; 0.4 µM) was 0.899, the viability (Pomalidomide; 2 µM) was 0.948 and the viability (Filgotinib; 0.024 µM) was 0.918. For the same test system, the viability (Filgotinib; 0.12 µM) was 0.969, the viability (Filgotinib; 0.6 µM) was 1.03 and the viability (Filgotinib; 3 µM) was 0.926. It also gave a viability (Filgotinib; 15 µM) of 0.203, a viability (Thalidomide; 0.032 µM) of 0.902 and a viability (Thalidomide; 0.16 µM) of 0.864. It also gave a viability (Thalidomide; 0.8 µM) of 0.918, a viability (Thalidomide; 4 µM) of 0.968 and a viability (Thalidomide; 20 µM) of 1.03.
